ChEMBL document CHEMBL1287762, “Synthesis and biological evaluation of 3-[4-(amino/methylsulfonyl)phenyl]methylene-indolin-2-one derivatives as novel COX-1/2 and 5-LOX inhibitors” (Bioorg Med Chem Lett, 2010)

Columns and labels:
[1] = target: T1, Prostaglandin G/H synthase 2 (Oryctolagus cuniculus, UniProt O02768); experiment: Inhibition of COX-2 in rabbit peripheral venous blood assessed as formation of 12-hydroxyheptadecatrienoic acid after 24 hrs in by HPLC presence of calcium ionophore […] and lipopolysaccharide; assay type: tissue-based
T1 sequence (O02768 whole entry): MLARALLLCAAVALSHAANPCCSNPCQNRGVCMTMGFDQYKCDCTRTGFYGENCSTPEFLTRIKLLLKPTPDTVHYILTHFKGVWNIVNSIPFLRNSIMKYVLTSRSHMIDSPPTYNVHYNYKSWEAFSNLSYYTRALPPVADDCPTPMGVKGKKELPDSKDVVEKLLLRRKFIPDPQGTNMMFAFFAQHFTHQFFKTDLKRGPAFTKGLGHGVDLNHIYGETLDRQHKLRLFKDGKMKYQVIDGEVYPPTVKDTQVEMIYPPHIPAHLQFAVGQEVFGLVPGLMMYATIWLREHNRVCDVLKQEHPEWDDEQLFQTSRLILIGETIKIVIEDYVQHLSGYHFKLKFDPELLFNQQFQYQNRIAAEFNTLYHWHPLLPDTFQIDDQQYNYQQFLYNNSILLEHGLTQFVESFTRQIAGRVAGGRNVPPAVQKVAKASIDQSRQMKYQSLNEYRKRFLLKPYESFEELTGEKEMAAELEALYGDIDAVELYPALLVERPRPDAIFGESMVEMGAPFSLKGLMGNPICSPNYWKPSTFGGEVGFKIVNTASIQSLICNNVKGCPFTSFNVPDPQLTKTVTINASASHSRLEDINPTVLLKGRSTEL

[2] = target: T2, Prostaglandin G/H synthase 1 (Oryctolagus cuniculus, UniProt O97554); experiment: Inhibition of COX-1 in rabbit peripheral venous blood assessed as formation of 12-hydroxyheptadecatrienoic acid after 24 hrs by HPLC in presence of calcium ionophore A23187
T2 sequence (O97554 whole entry): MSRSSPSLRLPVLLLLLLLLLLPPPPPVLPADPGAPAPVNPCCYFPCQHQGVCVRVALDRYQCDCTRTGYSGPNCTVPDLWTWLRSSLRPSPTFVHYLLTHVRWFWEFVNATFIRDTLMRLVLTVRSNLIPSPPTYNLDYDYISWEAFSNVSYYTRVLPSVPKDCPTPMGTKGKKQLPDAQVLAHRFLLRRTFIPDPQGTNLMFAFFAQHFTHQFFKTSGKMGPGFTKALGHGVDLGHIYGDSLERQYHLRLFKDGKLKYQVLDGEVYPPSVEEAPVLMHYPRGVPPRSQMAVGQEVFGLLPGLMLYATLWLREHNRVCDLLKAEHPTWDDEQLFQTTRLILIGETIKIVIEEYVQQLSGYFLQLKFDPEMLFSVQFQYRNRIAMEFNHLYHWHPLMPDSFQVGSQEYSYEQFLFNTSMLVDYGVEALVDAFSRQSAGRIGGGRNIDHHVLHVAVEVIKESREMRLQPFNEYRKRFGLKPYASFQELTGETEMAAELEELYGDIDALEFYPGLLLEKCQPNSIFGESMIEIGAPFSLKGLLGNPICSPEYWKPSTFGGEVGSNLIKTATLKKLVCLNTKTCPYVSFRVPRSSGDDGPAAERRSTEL

[3] = Inhibition of 5-LOX in rabbit peripheral venous blood assessed as formation of […] after 30 mins by HPLC; assay type: tissue-based, Oryctolagus cuniculus
Oryctolagus cuniculus = species: Oryctolagus cuniculus; experiment: Selectivity ratio, IC50 for COX-1in rabbit peripheral venous blood to IC50 for COX-2 in rabbit peripheral venous blood; assay type: tissue-based
Rattus norvegicus [4] = experiment: Antiinflammatory activity in Wistar rat assessed as inhibition of carrageenan-induced paw edema at 10.44 mg/kg, po administered 1 hr before carrageenan challenge measured at 1 hr by plethysmometer; assay type: functional
Rattus norvegicus [5] = experiment: Antiinflammatory activity in Wistar rat assessed as inhibition of carrageenan-induced paw edema at 10.44 mg/kg, po administered 1 hr before carrageenan challenge measured at 3 hrs by plethysmometer; assay type: functional
Rattus norvegicus [6] = experiment: Antiinflammatory activity in Wistar rat assessed as inhibition of carrageenan-induced paw edema at 10.44 mg/kg, po administered 1 hr before carrageenan challenge measured at 6 hrs by plethysmometer; assay type: functional
Mus musculus [7] = experiment: Analgesic activity in BALB/c mouse assessed as inhibition of acetic acid-induced writhing response for 15 mins at 20.88 mg/kg, po; assay type: functional; settings: 0.25 h
Rattus norvegicus [8] = experiment: Ulcerogenic effect in Wistar rat assessed as gastric ulcer area at 10.44 mg/kg, po administered for 7 days by microscopy; assay type: toxicity, organism-based, Stomach; design: dose 10.44 mg/kg, route oral; settings: in vivo, 168 h
Rattus norvegicus [9] = experiment: Antiinflammatory activity in Wistar rat assessed as inhibition of carrageenan-induced paw edema at 11.48 mg/kg, po administered 1 hr before carrageenan challenge measured at 1 hr by plethysmometer; assay type: functional
Rattus norvegicus [10] = experiment: Antiinflammatory activity in Wistar rat assessed as inhibition of carrageenan-induced paw edema at 11.48 mg/kg, po administered 1 hr before carrageenan challenge measured at 3 hrs by plethysmometer; assay type: functional
Rattus norvegicus [11] = experiment: Antiinflammatory activity in Wistar rat assessed as inhibition of carrageenan-induced paw edema at 11.48 mg/kg, po administered 1 hr before carrageenan challenge measured at 6 hrs by plethysmometer; assay type: functional
Mus musculus [12] = experiment: Analgesic activity in BALB/c mouse assessed as inhibition of acetic acid-induced writhing response for 15 mins at 22.96 mg/kg, po; assay type: functional; settings: 0.25 h
Rattus norvegicus [13] = experiment: Ulcerogenic effect in Wistar rat assessed as gastric ulcer area at 11.48 mg/kg, po administered for 7 days by microscopy; assay type: toxicity, organism-based, Stomach; design: dose 11.48 mg/kg, route oral; settings: in vivo, 168 h

CS(=O)(=O)c1ccc(/C=C2/C(=O)Nc3ccc([N+](=O)[O-])cc32)cc1
IC50 [1]: 3290 nM | IC50 [2]: 500 nM | IC50 [3]: 3910 nM | Ratio IC50 (Oryctolagus cuniculus): 0.15 | inhibition in vivo at 10.44 mg/kg (Rattus norvegicus [4]): 28.6% | inhibition in vivo at 10.44 mg/kg (Rattus norvegicus [5]): 33.3% | inhibition in vivo at 10.44 mg/kg (Rattus norvegicus [6]): 23.5% | inhibition in vivo at 20.88 mg/kg (Mus musculus [7]): 73.2% | Activity (Rattus norvegicus [8]): 0.81 mm2

CS(=O)(=O)c1ccc(/C=C2/C(=O)Nc3ccc(Br)cc32)cc1
IC50 [1]: 100 nM | IC50 [2]: 110 nM | IC50 [3]: 560 nM | Ratio IC50 (Oryctolagus cuniculus): 1.1 | inhibition in vivo at 11.48 mg/kg (Rattus norvegicus [9]): 33.3% | inhibition in vivo at 11.48 mg/kg (Rattus norvegicus [10]): 47.2% | inhibition in vivo at 11.48 mg/kg (Rattus norvegicus [11]): 29.4% | inhibition in vivo at 22.96 mg/kg (Mus musculus [12]): 82.8% | Activity (Rattus norvegicus [13]): 0.44 mm2
